This is an account of results in patent US20250295790A1, “LECTIN-TARGETING CONJUGATES” (Helmholtz-Zentrum für Infektionsforschung GmbH, priority 2021, published 2025).

Entries after “also recorded” stand apart in the source; their conditions may differ. Where no end group is shown, it is not given here. [ ]: non-standard residue; d: D form. Nba = nitrobenzyl amine (quencher); 2Abz = Nc1ccccc1C(=O)O

A short description of data set [1]: Cleavage / stability in PA14-filtrate without human blood plasma. The format is in vitro ADME, Pseudomonas aeruginosa PA14. The following applies: up to 24 h. Here is the method: P. aeruginosa PA14 was streaked on LB-agar plates (1% agar) from glycerol stocks and incubated at 37° C. overnight. 2-5 colonies were picked and dispersed in 10 mL LB (10 g/L trypton, 10 g/L NaCl, 5 g/L yeast extracts). This dispersion was incubated overnight at 37° C., 180 rpm under high humidity. The culture was centrifuged (4000 ref, room temperature, 10 min) and the supernatant was filtered (0.22 m pore size). […]
A 1 mM solution of the studied compound was prepared in PBS (150 mM NaCl, 2.6 mM KCl, 1.4 mM KH2PO4, 10 mM Na2HPO4, pH 7.4) with 20% DMSO. 50 μL of this solution was diluted in 950 μL matrix or human plasma (spiked with 10% LB) on ice. After brief vortex, 100 μL were immediately treated with 100 μL ice-cold MeCN (spiked with […] diphenhydramine as internal standard). The rest of the solution was incubated at 37° C. and 500 rpm in an eppendorf thermomixer. At various time points (30, 60, 120, 180 min), 100 L sample were taken and treated as described above. […] The AUC of the parent drug and its cleavage products and the internal standard was quantified using Compass QuantAnalysis quantification software. The relative AUC was calculated by AUC (compound)/AUC(ISTD). Procaine was used as a positive control as it readily degrades in human plasma.

The nature of data set [2]: Stability in aqueous buffer. Conditions: Tris buffer (TBS/Ca2+), after 24 h. The format is physicochemical.
Data set [3] concerns the target T1, LecA (Pseudomonas aeruginosa, UniProt Q05097).
T1 construct: made in house
Kind of data set: Surface plasmon resonance with LecA. The format is binding. The protocol: Surface plasmon resonance experiments were performed on a BIACORE X100 instrument (GE Healthcare) at 25° C. as described by Zahorska et. al. 2020. Averages and standard deviations were calculated from three independent experiments.

Data set [4] has as its target T1, LecA. Kind of data set: Direct titration of fluorescent ligand with LecA in fluorescence polarization assay. The format is binding.
The target of data set [5] is T1, LecA. The experiment in a line: Isothermal titration calorimetry with LecA. The format is binding. Here is the method:
Isothermal titration calorimetry was performed on an iTC200 (Malvern Panalytical) and the data were analyzed using Microcal Origin software (Malvern Panalytical). LecA in the cell was titrated with ligand in TBS/Ca^2+ buffer supplemented with 5% DMSO at 25° C. Steep titration slopes were the result of high amount of protein present and the high binding affinity of the ligand (high ‘value of c’).
Isothermal titration calorimetry was performed on an iTC200 (Malvern Panalytical) and the data were analyzed using Microcal Origin software (Malvern Panalytical).

For data set [6], the system named is P. aeruginosa PAO1 biofilms. The experiment in a line: P. aeruginosa biofilm staining in the flow cell. Format: cell-based, Pseudomonas aeruginosa PAO1. The following applies: 500 nM in medium, 4 h accumulation, flow 3 mL/h. Here is the method: Colonies of PAO1 wt labelled with the red fluorescent protein mCherry (pMP7605) were picked from a LB agar plate and transferred to 10 mL LB medium with Gentamicin 60 μg/ml to start an overnight culture. Incubation was done at 37° C. and 180 rpm overnight. A fresh culture was inoculated to an OD600nm of 0.02 (10 mL LB with Gentamicin 60 μg/mL) and incubated until the exponential growth phase was reached (OD600nm of 0.4 to 0.8). The bacterial suspension was diluted again to an OD600m of 0.1 and 300 μL were injected into a six-channel μ-slide (ibidi, Germany). The settling time was 30 min. The flow of 1:5 diluted LB medium with Gentamicin 60 μg/ml was 3 mL/h. The biofilms were grown in a heat system (ibidi, Germany) at 30° C. and for 48 h.
After 48 h of biofilm growth, aggregates were stained by supplementing the divalent LecA ligand 57 and Fluorescein disodium salt 58 as a control to the medium. The final concentration of the supplements in the medium was 500 nM and constantly accumulated within the biofilm for 4 h by a flow rate of 3 mL/h. Washing was performed for 30 min with LB 1:5 diluted with Gentamicin 60 μg/mL.
Analysis was done by using a fluorescence microscope Leica DMi8. […] The green fluorescein signal was detected by an excitation wavelength of 460 to 500 nm and an emission wavelength of 512 to 542 nm. Snapshots were normalized by using the Fiji software. […]

In data set [7] the test system is T2, LecA-targeted prodrug 36 (peptide-based prodrug with the linker Ala-Gly-Leu-Ala, SEQ ID NO 3, between a LecA-targeting galactoside and fluoroquinolone 2).
T2 sequence: AGLA

For data set [8], the system named is T3, LasB cleavable substrate Abz-Ala-Gly-Leu-Ala-Nba (SEQ ID NO 3, labelled).
T3 sequence: AGLA

In the next data set the target is T4, MMP-2 (Homo sapiens, UniProt P08253).
T4 sequence (P08253 110-660): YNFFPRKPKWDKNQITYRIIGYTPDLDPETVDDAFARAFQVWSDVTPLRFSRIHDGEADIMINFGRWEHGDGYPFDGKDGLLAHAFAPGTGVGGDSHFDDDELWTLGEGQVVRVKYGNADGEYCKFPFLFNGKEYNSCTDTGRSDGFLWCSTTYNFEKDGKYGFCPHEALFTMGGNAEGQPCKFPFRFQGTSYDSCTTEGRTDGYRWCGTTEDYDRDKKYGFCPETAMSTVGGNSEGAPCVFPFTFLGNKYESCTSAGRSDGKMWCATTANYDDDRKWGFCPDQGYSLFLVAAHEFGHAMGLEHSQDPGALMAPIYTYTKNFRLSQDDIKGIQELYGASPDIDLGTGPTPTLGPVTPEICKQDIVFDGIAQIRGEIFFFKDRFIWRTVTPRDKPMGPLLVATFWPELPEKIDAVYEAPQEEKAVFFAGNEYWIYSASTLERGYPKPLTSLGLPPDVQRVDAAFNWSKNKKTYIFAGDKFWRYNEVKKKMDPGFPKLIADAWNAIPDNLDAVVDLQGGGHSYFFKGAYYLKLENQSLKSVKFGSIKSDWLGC
The experiment in a line: FRET-based cleavage assay with MMP-2. Format: biochemical. Conditions: serial dilution of activated MMP-2.

T1 sequence (Q05097 whole entry): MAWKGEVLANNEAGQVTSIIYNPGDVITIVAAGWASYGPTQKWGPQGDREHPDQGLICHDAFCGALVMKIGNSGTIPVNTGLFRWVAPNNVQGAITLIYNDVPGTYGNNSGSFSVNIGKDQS
Procedure for MMP-2: MMP-2 (50 μL, 0.2 μg/mL in 20 mM tris pH 7.5, 8 mM CaCl2, 119 mM NaCl, 20% Glycerol, 0.05% Brij 35, Cat #SAE0174-50UG, Sigma-Aldrich) was activated with 1 mM APMA (from 100 mM DMSO stock, Cat #AS—71158, AnaSpec) for 1 h at 37° C. Then, dilution series of the activated MMP-2 and of PA14-filtrate were prepared in PBS. SensoLyte 520 generic MMP substrate (Cat #AS—71158, AnaSpec) was diluted 1:100 in PBS. […] 10 μL dilution series was mixed with 10 μL MMP substrate or LasB substrate and fluorescence (λex=490 mn, λem=520 nm and λex=320 mn, λem=420 nm, for MMP substrate and LasB substrate, respectively) was recorded for 10 min (10 s interval).

For the molecule `CC(C)C[C@H](N)C(=O)N[C@@H](C)C(=O)N[C@H]1CCN(c2cc3c(cc2F)c(=O)c(C(=O)O)cn3C2CC2)C1` [Compound 35, 7-((S)-3-((S)-2-((S)-2-amino-4-methylpentanamido)propanamido)pyrrolidin-1-vl)-1-cyclopropyl-6-fluoro-4-oxo-1,4-dihydroquinoline-3-carboxylic acid], the “release of free drug from dipeptide-conjugates” value in [1] is given as “very slow; also recorded: only slowly released their antibiotic cargo”.

Regarding `O=C(CCc1ccc(O[C@@H]2OC(CO)[C@H](O)C(O)C2O)cc1)Nc1ccc(CN(CCc2cn(CCOCCOCCOCCNC(=S)Nc3ccc4c(c3)C(=O)OC43c4ccc(O)cc4Oc4cc(O)ccc43)nn2)Cc2ccc(NC(=O)CCc3ccc(O[C@@H]4OC(CO)[C@H](O)C(O)C4O)cc3)cc2)cc1` (stereo partly shown) [Compound 57], the degradation in buffer result in data set [2] was “did not show any degradation”. Further, the Kd is 19.3 ± 10.5 nM on LecA [3]; 1050 nM on LecA [4]; “High affinity” on LecA [5] (ITC, TBS/Ca2+ buffer, 5% DMSO, 25° C.).

Turning to `CC1=CC(C)=[N+]2C1=Cc1ccc(CCC(=O)NCCCN=[N+]=[N-])n1[B-]2(F)F` [BDP FL azide], in data set [6], the biofilm staining entry is on record as “did not show any enrichment”.

Turning to “matrix-metalloprotease 2 (MMP-2), activated with APMA”, the “Stability of prodrug 36 in presence of activated MMP-2, monitored by HPLC-MS” value in data set [7] was “No detectable metabolism was observed after 20 min or 3 d at 37 °C”. Besides, the “turnover of the LasB-substrate in a FRET-based cleavage assay (serial dilution of activated MMP-2)” value in [8] is “Only a very weak turnover of the LasB-substrate was observed in a FRET-based cleavage assay at very high concentrations (>50 ng/mL final) of MMP-2”.

Regarding `CC(C)C[C@H](N)C(=O)N[C@@H](C)C(=O)N1CCN(c2cc3c(cc2F)c(=O)c(C(=O)O)cn3C2CC2)CC1` [Compound 19, Leu-Ala-ciprofloxacin-conjugate], the “release of free drug from dipeptide-conjugates” value in [1] is “very slow; also recorded: only slowly released their antibiotic cargo”.

Turning to “Abz-Ala-Gly-Leu-Ala-Nba ([2Abz]AGLA-Nba) [LasB-substrate]”, the “cleavage of FRET substrate by MMP-2” value in the data set with MMP-2 is given as “rather stable; also recorded: very weak turnover”.

Turning to `CC(C)C[C@H](NC(=O)CNC(=O)[C@H](C)NC(=O)CCCCCn1cc(CCN(Cc2ccc(NC(=O)CCc3ccc(O[C@@H]4OC(CO)[C@H](O)C(O)C4O)cc3)cc2)Cc2ccc(NC(=O)CCc3ccc(O[C@@H]4OC(CO)[C@H](O)C(O)C4O)cc3)cc2)nn1)C(=O)N[C@@H](C)C(=O)N[C@H]1CCN(c2cc3c(cc2F)c(=O)c(C(=O)O)cn3C2CC2)C1` (stereo partly shown) [Compound 68], the Kd at LecA [5] turned out to be 36 ± 48 nM.

As to `C#CCCN(Cc1ccc(NC(=O)CCc2ccc(O[C@@H]3OC(CO)[C@H](O)C(O)C3O)cc2)cc1)Cc1ccc(NC(=O)CCc2ccc(O[C@@H]3OC(CO)[C@H](O)C(O)C3O)cc2)cc1` (stereo partly shown) [Compound 55], the results for the Kd on LecA [3] and on LecA [5] were 9.9 ± 0.5 nM and 47.2 ± 11.3 nM, respectively.
